Data on 2 molecules can be found in patent US4180578A, “2,4-Diamino-5-(4'-methylthio)benzylpyrimidenes, compounds, compositions and method of use” (Ludwig Heumann, & Co. GmbH, priority 1977, dated 1979).

One series is described as follows: Serum level, rat. The conditions noted are these: po, 50 mg/kg i.g. Format: in vivo. Here is the method:
|Serum level, rat (50 mg/kg i.g.)

Another series in a line: in vivo. To be noted: po, mouse, intragastral, safety limits p = 0.05 printed for TMP: lower 2105.5, upper 3629.8. An excerpt:
2,4-diamino-5-(3',5'-dimethoxy-4'-S-methyl)-
benzylpyrimidine (mouse, intragastral administration) (determined
according to J.T. Litchfield and F. Wilcoxon in "J. Pharmacol.

A further series deals with Klebsiellae. The series is described as follows: MIC, serial dilution test, DST-Agar. The conditions noted are these: n = 3, DST-Agar, read-out: Geometrical mean value of MIC. The class given is cell-based. The source says: (§1) MIC values in μg/ml (serial dilution test, DST-Agar)
(§2) Geometrical mean value of MIC in μg/ml

In another series the test system is E. Coli. The series is described as follows: MIC, serial dilution test, DST-Agar. The class given is cell-based. To be noted: Escherichia coli, n = 15, DST-Agar, read-out: Geometrical mean value of MIC.
From the text: as §1, §2

In a further series the test system is Proteus. The series is described as follows: MIC, serial dilution test, DST-Agar. Format: cell-based. To be noted: n = 3, DST-Agar, read-out: Geometrical mean value of MIC.
From the text: as §1, §2

The next series concerns Enterococcus. The series is described as follows: MIC, serial dilution test, DST-Agar. Format: cell-based. To be noted: n = 2, DST-Agar, read-out: Geometrical mean value of MIC.
From the text: as §1, §2

Converted amounts (≈) assume the structure as drawn. Where only a bound is given, the exact number is not on record here.

On to `COc1cc(Cc2cnc(N)nc2N)cc(OC)c1SC` [2,4-diamino-5-(3',5-dimethoxy-4'-methylthio)-benzylpyrimidine], for which the concentration at 0.5 h in “Serum level, rat” amounted to 5000 ng/mL. Further, the concentration at 1 h in “Serum level, rat” is 2700 ng/mL. In the series “in vivo”, the 50% lethal dose (LD50) – broadly, the dose expected to kill half of the subjects tested – was greater than 5000 mg/kg. Further, the MIC – broadly, the smallest concentration in the dilution series that meets the test's criterion for growth inhibition – worked out at 0.248 µg/mL (≈ 0.809 µM) in the series on Klebsiellae, 0.142 µg/mL (≈ 0.463 µM) with E. Coli, 0.992 µg/mL (≈ 3.24 µM) with Proteus and 0.156 µg/mL (≈ 0.509 µM) with Enterococcus.
Consider `COc1cc(Cc2cnc(N)nc2N)cc(OC)c1OC` [TMP, 2,4-diamino-5-(3'4',5'-trimethoxybenzyl)-pyrimidine], for which the concentration at 0.5 h in “Serum level, rat” worked out at 4500 ng/mL. Moreover, in the series “Serum level, rat”, the concentration at 1 h was determined as 3300 ng/mL. Further, the LD50 in “in vivo” worked out at 2760 mg/kg. Further, the minimum inhibitory concentration (MIC) in the series with Klebsiellae worked out at 0.496 µg/mL (≈ 1.71 µM); with E. Coli it was 0.108 µg/mL (≈ 0.372 µM); with Proteus, 0.625 µg/mL (≈ 2.15 µM); in the series on Enterococcus, 0.078 µg/mL (≈ 0.269 µM).
